Assay results from US20250250227A1, “AMINO LIPID COMPOUND, PREPARATION METHOD THEREFOR, COMPOSITION THEREOF AND USE THEREOF” (SHENZHEN SHENXIN BIOTECHNOLOGY CO., LTD., priority 2022, published 2025).

Columns and labels:
[1] = system: Female BALB/c mice; assay: In vivo safety of hEPO mRNA lipid nanoparticle: serum alanine aminotransferase (ALT) enzyme activity; details: hEPO mRNA LNP, 300 μL IV, serum 12 h after injection; FIG. 1
Protocol: A human erythropoietin mRNA (hEPO mRNA)-encapsulating lipid nanoparticle formulation was prepared according to the method as described in Experimental Example 1, with replacing the luciferase mRNA (Fluc mRNA) with human erythropoietin mRNA (hEPO mRNA), with a concentration of hEPO mRNA of 0.2 g/L, a mass ratio of hEPO mRNA to Lipid of 1:10, a particle size of 90-130 nm, and an encapsulation efficiency of above 90% or higher.
Animal preparation: Female BALB/c mice of 6-8 weeks old were selected and raised in an SPF grade breeding room. Animal testing was conducted in strict accordance with the guidelines of national health institutions and animal ethics requirements.
In vivo Delivery: Prior to injection of the test LNP formulations, the LNP formulations were gently and repeatedly inverted to thoroughly mix the formulation samples. A corresponding amount of the formulation samples were aspirated with a 1 ml insulin syringe, and the LNP formulations were injected by tail vein injection (IV), with 5 mice per formulation. Each mouse was injected with 300 μL of the human erythropoietin mRNA (hEPO mRNA)-encapsulating lipid nanoparticle formulation.
Serum acquisition: Blood samples of mice were collected 12 h after injection, placed in tubes without anticoagulants, and naturally coagulated at room temperature for 30-60 min, and then centrifuged at a speed of 3500 rpm for 10 min to obtain the supernatant, which was the serum.
The detection of alanine transaminase was carried out according to instructions of the kit (Nanjing Jiancheng Bioengineering Institute, Catalog. No. C009-2-1), and a standard curve was made using the standard provided in the kit. D-PBS was used in the experiment, which was purchased from Sangon Biotech (Shanghai) Co., Ltd., Catalog No. E607009-0600.
The method of detection of enzyme activity of alanine aminotransferase (ALT) in serum of the mice is as follows:
• (1) Enzymatic reaction: 0, 2, 4, 6, 8 and 10 μL of […] sodium pyruvate standard solution were sequentially added to 5 μL of 0.1 mol/L phosphate buffer, and the volume was supplemented to 25 μL with a matrix solution, and repeatedly aspirating and spitting with a pipette for mixing well; • (2) Addition reaction: 20 μL 2,4-dinitrophenylhydrazine solution was added to all reaction wells in (1), mixed by aspirating and spitting, and then placed in an incubator at 37° C. to react for 20 min; • (3) Developing: 200 μL of 0.4 mol/L NaOH solution was added to all reaction wells in (2) to stop the reaction, mixed by aspirating and spitting, and incubated at room temperature for 15 min. The OD value of each well was measured at 510 nm in a microplate reader; and • (4) Data processing of standard curve: The corresponding absolute OD value for each well was obtained by subtracting the OD value for 0 μL well from the measured OD value for each well, the corresponding ALT Karmen units being 0, 28, 57, 97, 150 and 200 U/L, respectively. The standard curve was obtain by taking the absolute OD value as the abscissa and the corresponding Karmen unit as the ordinate.
• (1) Reagent preparation: an ALT matrix solution was placed in an incubator at 37° C. for preheating; • (2) Enzymatic reaction: 5 μL diluted serum was aspirated and added to a 96-well plate, then 20 μL matrix solution was added to the corresponding sample well and mixed by repeatedly aspirating and spitting to avoid bubbling, and then placed in an incubator at 37° C. for 30 min; • (3) Addition reaction: 20 μL 2,4-dinitrophenylhydrazine was added to all reaction wells in (2), mixed by aspirating and spitting, and then reacted in an incubator at 37° C. for 20 min; • (4) Developing: 200 μL of 0.4 mol/L NaOH solution was added to all reaction wells in (3) to stop the reaction, mixed by aspirating and spitting, and then incubated at room temperature for 15 min. […]

[2] = system: Female BALB/c mice; assay: Performance evaluation of in vivo delivery of Fluc mRNA lipid nanoparticle (IVIS, body and organs); details: Fluc mRNA LNP; for Liver (fluorescence expression intensity) / Spleen (fluorescence expression intensity): 75 μL IV; for Liver (fluorescence expression intensity) / Spleen (fluorescence expression intensity) / Total flux (fluorescence expression intensity) / (Spleen/Total Flux) * 100%: 6 hours after injection; for Liver (fluorescence expression intensity) / Spleen (fluorescence expression intensity) / Total flux (fluorescence expression intensity): IVIS; for Total flux (fluorescence expression intensity): 75 μL tail vein injection (IV); for (Spleen/Total Flux) * 100% / Multiple of spleen delivery/total delivery to amino lipid compound 118: IV; for Multiple of spleen delivery/total delivery to amino lipid compound 118: relative to amino lipid compound 118
Procedure, shortened: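 Female BALB/c mice, 6-8 weeks, received 75 μL Fluc mRNA-LNP by tail-vein injection, 3 mice per formulation. At 6 h, 200 μL D-luciferin was injected, mice were anesthetized with isoflurane, and IVIS bioluminescence was imaged in body and organs.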

SMILES | ALT enzyme activity (Karmen unit) compared to ALC0315 and SM-102 [1] | Liver (fluorescence expression intensity) [2] | Spleen (fluorescence expression intensity) [2] | Total flux (fluorescence expression intensity) [2] | (Spleen/Total Flux) * 100% [2] [%] | Multiple of spleen delivery/total delivery to amino lipid compound 118 [2]
CCCCCCC(CCCCCC)OC(=O)CCCCCCCCC(CCCCCCCCC(=O)OC(CCCCCC)CCCCCC)OC(=O)N(CCCN(C)C)CCC(=O)OCCCC [Compound 264] | significantly lower ALT enzyme activity | 1.61E+08 | 8.05E+06 | 4.95E+08 | 1.63 | 4.78
CCCCCCCOC(=O)CCN(CCCN(C)C)C(=O)OC(CCCCCCCCC(=O)OC(CCCCCC)CCCCCC)CCCCCCCCC(=O)OC(CCCCCC)CCCCCC [Compound 267] | significantly lower ALT enzyme activity | 9.91E+07 | 1.54E+06 | 4.01E+08 | 0.38 | 1.13
CCCCCCC(CCCCCC)OC(=O)CCCCCCCCC(CCCCCCCCC(=O)OC(CCCCCC)CCCCCC)OC(=O)N(CCCN(C)C)CC(=O)OCCCC [Compound 270] | significantly lower ALT enzyme activity | 1.34E+08 | 7.36E+06 | 4.40E+08 | 1.67 | 4.92
CCCCCCOC(=O)CN(CCCN(C)C)C(=O)OC(CCCCCCCCC(=O)OC(CCCCCC)CCCCCC)CCCCCCCCC(=O)OC(CCCCCC)CCCCCC [Compound 272] | significantly lower ALT enzyme activity | 7.42E+07 | 3.03E+06 | 4.04E+08 | 0.75 | 2.21
CCCCCCCOC(=O)CN(CCCN(C)C)C(=O)OC(CCCCCCCCC(=O)OC(CCCCCC)CCCCCC)CCCCCCCCC(=O)OC(CCCCCC)CCCCCC [Compound 273] | significantly lower ALT enzyme activity | 4.33E+07 | 2.37E+06 | 1.78E+08 | 1.33 | 3.92
